Bounds are passed on as bounds.

A word on the melting point: it is the temperature of the solid-liquid transition. As to `CC(NC(=O)NCc1ccc2c(c1)CN(C1CCC(=O)NC1=O)C2=O)c1ccc(Cl)c(Cl)c1` (stereo not drawn) [Example 5.60, 1-[1-(3,4-Dichloro-phenyl)-ethyl]-3-[2-(2,6-dioxo-piperidin-3-yl)-1-oxo-2,3-dihydro-1H-isoindol-5-ylmethyl]-urea], the melting point was 200 to 202 °C.

Consider `CC(=O)Nc1ccc(NC(=O)NCc2ccc3c(c2)CN(C2CCC(=O)NC2=O)C3=O)cc1` (stereo not drawn) [Example 5.13, N-(4-{3-[2-(2,6-Dioxo-piperidin-3-yl)-1-oxo-2,3-dihydro-1H-isoindol-5-ylmethyl]-ureido}-phenyl)-acetamide], for which the melting point fell in the range of 265 to 267 °C.

`Cc1ccc(NC(=N)NCc2ccc3c(c2)CN(C2CCC(=O)NC2=O)C3=O)cc1Cl.Cl` (stereo not drawn) registered a melting point above 400 °C.

The molecule `NC(=O)[C@H]1CC[C@@H](NC(=O)NCc2ccc3c(c2)CN(C2CCC(=O)NC2=O)C3=O)CC1` (stereo partly drawn) [Example 5.43, 4-{3-[2-(2,6-Dioxo-piperidin-3-yl)-1-oxo-2,3-dihydro-1H-isoindol-5-ylmethyl]-ureido}-cyclohexanecarboxylic acid amide] returned a melting point of 195 to 197 °C.

In turn, `Cc1ccc(N/C(=N\C#N)NCc2ccc3c(c2)CN(C2CCC(=O)NC2=O)C3=O)cc1Cl` (stereo not drawn) [Example 5.30, N″-(3-Chloro-4-methyl-phenyl)-N′-[2-(2,6-dioxo-piperidin-3-yl)-1-oxo-2,3-dihydro-1H-isoindol-5-ylmethyl]-N-cyano-guanidine] returned a melting point of 325 to 327 °C.

`O=C1CCC(N2Cc3cc(CNC(=O)Nc4ccc(-c5ncc[nH]5)cc4)ccc3C2=O)C(=O)N1` (stereo not drawn) [Example 5.31, 1-[2-(2,6-Dioxo-piperidin-3-yl)-1-oxo-2,3-dihydro-1H-isoindol-5-ylmethyl]-3-[4-(1H-imidazol-2-yl)-phenyl]-urea] had a melting point of 190 to 192 °C.

As for `O=C1CCC(N2Cc3cc(CNC(=O)Nc4ccc(Cl)c(-c5nc6ccccc6[nH]5)c4)ccc3C2=O)C(=O)N1` (stereo not drawn) [Example 5.32, 1-[3-(1H-Benzoimidazol-2-yl)-4-chloro-phenyl]-3-[2-(2,6-dioxo-piperidin-3-yl)-1-oxo-2,3-dihydro-1H-isoindol-5-ylmethyl]-urea], the melting point fell in the range of 275 to 277 °C.

In turn, `COCCOCCOc1ccc(NC(=O)NCc2ccc3c(c2)CN(C2CCC(=O)NC2=O)C3=O)cc1Cl` (stereo not drawn) [Example 5.61, 1-(3-Chloro-4-(2-(2-methoxyethoxy)ethoxy)phenyl)-3-((2-(2,6-dioxopiperidin-3-yl)-1-oxoisoindolin-5-yl)methyl)urea] gave a melting point of 188 to 190 °C.

Regarding `CC(C)(C)OC(=O)N1CCc2cc(NC(=O)NCc3ccc4c(c3)CN(C3CCC(=O)NC3=O)C4=O)ccc2C1` (stereo not drawn) [Example 5.46, 6-{3-[2-(2,6-Dioxo-piperidin-3-yl)-1-oxo-2,3-dihydro-1H-isoindol-5-ylmethyl]-ureido}-3,4-dihydro-1H-isoquinoline-2-carboxylic acid tert-butyl ester], the melting point fell in the range of 230 to 232 °C.
